Key:
FLT3 = molecular target: T1, FLT3 (Homo sapiens, UniProt P36888); assay: TR-FRET kinase activity assay, FLT3; assay type: biochemical; conditions: ATP at Km, 60 minutes
T1 sequence (P36888 27-993): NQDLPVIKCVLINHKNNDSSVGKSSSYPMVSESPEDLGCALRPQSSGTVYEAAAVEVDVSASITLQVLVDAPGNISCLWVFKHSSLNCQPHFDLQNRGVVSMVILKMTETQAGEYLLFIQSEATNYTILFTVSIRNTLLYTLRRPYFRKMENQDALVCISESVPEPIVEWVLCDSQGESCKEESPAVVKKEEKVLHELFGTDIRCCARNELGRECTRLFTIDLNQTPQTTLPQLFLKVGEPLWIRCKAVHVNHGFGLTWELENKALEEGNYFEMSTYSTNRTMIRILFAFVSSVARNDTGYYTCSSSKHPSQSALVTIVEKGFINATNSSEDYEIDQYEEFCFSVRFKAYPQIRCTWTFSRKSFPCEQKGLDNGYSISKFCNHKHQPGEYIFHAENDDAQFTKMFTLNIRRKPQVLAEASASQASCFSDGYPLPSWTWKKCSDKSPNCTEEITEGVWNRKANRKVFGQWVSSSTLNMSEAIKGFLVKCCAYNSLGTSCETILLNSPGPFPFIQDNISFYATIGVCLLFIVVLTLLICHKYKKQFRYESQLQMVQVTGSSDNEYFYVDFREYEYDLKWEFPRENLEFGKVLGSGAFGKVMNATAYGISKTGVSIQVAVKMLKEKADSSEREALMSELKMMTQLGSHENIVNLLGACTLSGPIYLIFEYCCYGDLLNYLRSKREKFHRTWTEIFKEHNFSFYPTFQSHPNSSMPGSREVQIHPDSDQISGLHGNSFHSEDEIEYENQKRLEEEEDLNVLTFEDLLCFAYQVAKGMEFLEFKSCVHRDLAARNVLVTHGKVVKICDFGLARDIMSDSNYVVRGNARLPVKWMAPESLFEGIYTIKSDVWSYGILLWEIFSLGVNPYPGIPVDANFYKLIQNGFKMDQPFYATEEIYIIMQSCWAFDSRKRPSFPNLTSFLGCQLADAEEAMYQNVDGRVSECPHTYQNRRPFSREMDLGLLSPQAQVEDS
Summary of the method: (§1)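 Enzyme + labelled peptide + cpd premixed; ATP at per-enzyme Km starts rxn. 60 min RT, HEPES pH 7.5/MgCl2/EGTA/Brij 35/DTT buffer. Stop 12.5 mM EDTA, Eu phospho-Ab 30 min dark, TR-FRET read → IC50.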

MERTK = molecular target: T2, MERTK (Homo sapiens, UniProt Q12866); assay: TR-FRET kinase activity assay, MERTK; assay type: biochemical; conditions: for IC50: TR-FRET activity assay, ATP at Km, 60 minutes, read-out: Mer IC50; for FLT3/Mer ratio (FLT3 IC50/Mer IC50): ratio calculated as FLT3 IC50/Mer IC50
T2 sequence (Q12866 21-999): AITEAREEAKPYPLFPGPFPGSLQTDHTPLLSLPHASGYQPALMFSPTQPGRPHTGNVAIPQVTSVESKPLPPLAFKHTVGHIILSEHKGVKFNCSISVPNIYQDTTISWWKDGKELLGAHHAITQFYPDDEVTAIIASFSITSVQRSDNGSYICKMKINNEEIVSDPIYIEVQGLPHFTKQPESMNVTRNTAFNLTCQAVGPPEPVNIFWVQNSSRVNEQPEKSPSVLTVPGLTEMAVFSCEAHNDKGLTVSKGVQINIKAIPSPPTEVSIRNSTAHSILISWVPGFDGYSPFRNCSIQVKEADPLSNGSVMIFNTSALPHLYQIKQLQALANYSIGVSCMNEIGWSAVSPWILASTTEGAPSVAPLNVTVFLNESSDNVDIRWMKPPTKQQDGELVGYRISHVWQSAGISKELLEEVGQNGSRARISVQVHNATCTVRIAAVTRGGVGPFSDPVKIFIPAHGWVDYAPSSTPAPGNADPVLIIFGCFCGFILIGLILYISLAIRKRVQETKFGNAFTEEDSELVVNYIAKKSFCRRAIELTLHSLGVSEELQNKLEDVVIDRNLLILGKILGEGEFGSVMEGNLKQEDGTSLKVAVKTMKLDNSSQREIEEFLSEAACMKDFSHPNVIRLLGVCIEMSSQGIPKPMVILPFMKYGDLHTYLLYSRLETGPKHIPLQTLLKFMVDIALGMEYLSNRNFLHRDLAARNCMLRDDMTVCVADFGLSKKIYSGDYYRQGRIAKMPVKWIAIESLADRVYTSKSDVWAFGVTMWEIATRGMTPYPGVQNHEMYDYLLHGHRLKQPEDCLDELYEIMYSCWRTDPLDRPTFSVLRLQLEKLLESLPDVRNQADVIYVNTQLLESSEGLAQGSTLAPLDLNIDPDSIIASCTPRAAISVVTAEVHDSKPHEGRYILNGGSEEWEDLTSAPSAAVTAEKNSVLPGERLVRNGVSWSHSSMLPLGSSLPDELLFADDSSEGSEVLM
Summary of the method: as §1

Row | IC50 (FLT3) | IC50 (MERTK) | FLT3/Mer ratio (FLT3 IC50/Mer IC50) (MERTK) | Structure (SMILES)
1 | 100 to 1000 nM | ≤ 100 nM | +++ (“+++” represents a ratio of >100) | COC[C@H](C)Nc1ncc2c(-c3ccnc(N4CCOC(C(C)(C)O)C4)c3)cc([C@H]3CC[C@H](O)CC3)n2n1 (stereo partly drawn) [Compound 534]
2 | 1000 to 10000 nM | ≤ 100 nM | +++ (“+++” represents a ratio of >100) | COCC(C)Nc1ncc2c(-c3ccc4cc[nH]c4c3)cc(C3CCC(O)CC3)n2n1 (stereo not drawn) [Compound 538]
3 | 100 to 1000 nM | ≤ 100 nM | +++ (“+++” represents a ratio of >100) | COC[C@H](C)Nc1ncc2c(-c3ccnc(N4CCOCC4)c3)cc([C@H]3CC[C@@](C)(O)CC3)n2n1 [Compound 548]
4 | 100 to 1000 nM | ≤ 100 nM | +++ (“+++” represents a ratio of >100) | COCC(C)Nc1ncc2c(-c3ccc4ncoc4c3)cc(C3CCC(O)CC3)n2n1 (stereo not drawn) [Compound 552]
5 | 100 to 1000 nM | ≤ 100 nM | +++ (“+++” represents a ratio of >100) | CC(C)(O)C1CN(c2cc(-c3cc([C@H]4CC[C@H](O)CC4)n4nc(NCCOC(F)F)ncc34)ccn2)CCO1 (stereo partly drawn) [Compound 557]
6 | 100 to 1000 nM | ≤ 100 nM | +++ (“+++” represents a ratio of >100) | COC[C@H](C)Nc1ncc2c(-c3ccnc(N4CCO[C@H](C(C)(C)O)C4)c3)cc([C@H]3CC[C@H](O)CC3)n2n1 [Compound 558]
7 | 100 to 1000 nM | ≤ 100 nM | +++ (“+++” represents a ratio of >100) | COCC(C)Nc1ncc2c(-c3ccnc(N4CCOC(C(C)(C)O)C4)c3)cc(C3CCC(O)CC3)n2n1 (stereo not drawn) [Compound 559]
8 | 100 to 1000 nM | ≤ 100 nM | +++ (“+++” represents a ratio of >100) | COC[C@H](C)Nc1ncc2c(-c3cnn(C(C)(C)C(=O)N4CCOCC4)c3)cc([C@H]3CC[C@@](C)(O)CC3)n2n1 [Compound 561]
9 | 100 to 1000 nM | ≤ 100 nM | +++ (“+++” represents a ratio of >100) | COC[C@H](C)Nc1ncc2c(-c3cnn(C(C)(C)c4nnc(C5CC5)o4)c3)cc([C@H]3CC[C@H](O)CC3)n2n1 [Compound 563]

More lines, now with the values behind:

Row | Structure (SMILES) | IC50 (FLT3) | IC50 (MERTK) | FLT3/Mer ratio (FLT3 IC50/Mer IC50) (MERTK)
10 | COC[C@H](C)Nc1ncc2c(-c3ccc([S@@](C)(=N)=O)nc3)cc([C@H]3CC[C@H](O)CC3)n2n1 [Compound 533] | 1000 to 10000 nM | ≤ 100 nM | +++ (“+++” represents a ratio of >100)
11 | C[C@H](Nc1ncc2c(-c3cnn(C(C)(C)C(=O)N4CCOCC4)c3)cc([C@H]3CC[C@H](O)CC3)n2n1)C(F)(F)F [Compound 537] | 1000 to 10000 nM | ≤ 100 nM | +++ (“+++” represents a ratio of >100)
12 | COCC(C)Nc1ncc2c(-c3ccc4[nH]ccc4c3)cc(C3CCC(O)CC3)n2n1 (stereo not drawn) [Compound 539] | 1000 to 10000 nM | ≤ 100 nM | +++ (“+++” represents a ratio of >100)
13 | C[C@@H](CC(F)(F)F)Nc1ncc2c(-c3ccc([S@](C)(=N)=O)nc3)cc([C@H]3CC[C@H](O)CC3)n2n1 [Compound 540] | ≤ 100 nM | ≤ 100 nM | +++ (“+++” represents a ratio of >100)
14 | C[C@@H](CC(F)(F)F)Nc1ncc2c(-c3ccc([S@@](C)(=N)=O)nc3)cc([C@H]3CC[C@H](O)CC3)n2n1 [Compound 541] | ≤ 100 nM | ≤ 100 nM | ++ (“++” represents a ratio of between 10 and 100)
15 | CC(Nc1ncc2c(-c3cnn(C4COC4)c3)cc(C3CCC(O)CC3)n2n1)c1ccccn1 (stereo not drawn) [Compound 544] | 1000 to 10000 nM | 100 to 1000 nM | ++ (“++” represents a ratio of between 10 and 100)
16 | COC[C@H](C)Nc1ncc2c(-c3ccnc(N4CCOCC4)c3)cc([C@H]3CC[C@@H](O)CC3)n2n1 [Compound 546] | 100 to 1000 nM | ≤ 100 nM | +++ (“+++” represents a ratio of >100)
17 | COC[C@H](C)Nc1ncc2c(-c3cnn(C(C)(C)C(=O)N4CCOCC4)c3)cc([C@H]3CC[C@@H](O)CC3)n2n1 [Compound 547] | 100 to 1000 nM | ≤ 100 nM | +++ (“+++” represents a ratio of >100)
18 | COC[C@H](C)Nc1ncc2c(-c3ccnc(N4CCOCC4)c3)cc([C@H]3CC[C@](C)(O)CC3)n2n1 [Compound 549] | 100 to 1000 nM | ≤ 100 nM | +++ (“+++” represents a ratio of >100)
19 | COCC(C)Nc1ncc2c(-c3ccc4ocnc4c3)cc(C3CCC(O)CC3)n2n1 (stereo not drawn) [Compound 550] | 100 to 1000 nM | ≤ 100 nM | +++ (“+++” represents a ratio of >100)
20 | COCC(C)Nc1ncc2c(-c3cccc(-c4nnc(C)o4)c3)cc(C3CCC(O)CC3)n2n1 (stereo not drawn) [Compound 551] | 1000 to 10000 nM | ≤ 100 nM | +++ (“+++” represents a ratio of >100)
21 | COCC(C)Nc1ncc2c(-c3ccc4[nH]cnc4c3)cc(C3CCC(O)CC3)n2n1 (stereo not drawn) [Compound 553] | 100 to 1000 nM | ≤ 100 nM | +++ (“+++” represents a ratio of >100)
22 | COC[C@H](C)Nc1ncc2c(-c3cnn(C(C)(C)C(=O)N4CC[C@H](O)C4)c3)cc([C@H]3CC[C@H](O)CC3)n2n1 [Compound 554] | 1000 to 10000 nM | ≤ 100 nM | +++ (“+++” represents a ratio of >100)
23 | COC[C@H](C)Nc1ncc2c(-c3cnn(C(C)(C)C(=O)N4CC[C@@H](O)C4)c3)cc([C@H]3CC[C@H](O)CC3)n2n1 [Compound 555] | 1000 to 10000 nM | ≤ 100 nM | +++ (“+++” represents a ratio of >100)
24 | COC[C@H](C)Nc1ncc2c(-c3cnn(C(C)(C)C(=O)N4CCOC(C(C)(C)O)C4)c3)cc([C@H]3CC[C@H](O)CC3)n2n1 (stereo partly drawn) [Compound 556] | 1000 to 10000 nM | ≤ 100 nM | +++ (“+++” represents a ratio of >100)
25 | COC[C@H](C)Nc1ncc2c(-c3cnn(C(C)(C)C(=O)N4CCOCC4)c3)cc([C@H]3CC[C@](C)(O)CC3)n2n1 [Compound 560] | 100 to 1000 nM | ≤ 100 nM | +++ (“+++” represents a ratio of >100)
26 | COCC(C)Nc1ncc2c(-c3cccc(N4CCOCC4)c3)cc(C3CCC(O)CC3)n2n1 (stereo not drawn) [Compound 562] | ≤ 100 nM | ≤ 100 nM | +++ (“+++” represents a ratio of >100)
27 | COC[C@H](C)Nc1ncc2c(-c3cnn(C4COC4)c3)cc([C@H]3CC[C@@H](O)CC3)n2n1 [Compound 564] | ≤ 100 nM | ≤ 100 nM | ++ (“++” represents a ratio of between 10 and 100)

Reference: patent US11040981B2, “Pyrrolotriazine compounds and methods of inhibiting TAM kinases” (Syros Pharmaceuticals, Inc., priority 2017, dated 2021)
